Tests used:
[1] = Biodegradability by manometric respirometry test (OECD guideline No. 301F); conditions: OECD 301F manometric respirometry; oxygen consumption of theory
Excerpt: The results of the biodegradability assessment by the manometric respirometry test (OECD guideline for the testing of materials No. 301F, Paris 1992) are summarized in Table 2.
A compound can be classified biodegradable, if it reaches the pass level of 60% oxygen consumption of theory required for complete mineralization.
It is readily biodegradable, if the pass level is reached within 10 days within the 28-day period of the test. The 10-day window begins when the degree of biodegradation has reached 10%.
If the pass level is obtained after 28-day period of the test, the compound can be classified as inherently biodegradable.

[2] = Wash test in liquid detergent: odour intensity and quality on line-dried fabric, assessed by expert panel; conditions: for Odour intensity on dried fabric over time (FIG. 1): 0.2% by weight in liquid detergent, 40° C. wash, fresh dried, after 24 hours and after four days, scale 0 to 5; for Fragrance score after 1 day / Fragrance score after 3 days: line-dried cotton/elastane fabric, panel of 4-6 experts, scale 0 (odourless) to 5 (extremely strong)
Protocol: A Nitrone precursor (Sample A: (E)-2-methyl-N-(4-methylbenzyl)undecan-1-imine oxide, compound of Example 1) has been compared to the aldehyde (Sample B: 2-methyl undecanal) in a wash test. • 1) Sample preparation: 0.2% by weight of the precursor or the aldehyde have been incorporated into unperfumed liquid detergent base by magnetic stirring at room temperature for 24 h., • 2) Wash test: A 40° C. machine wash cycle was performed using 55 g of the liquid detergent sample containing the test material and odour-neutral cotton/elastan mixed fabric T-shirts. […]
Further compounds of formula (I) have been tested in liquid detergent. • 1) Sample preparation: 0.2% wt/wt of the test material was incorporated in unperfumed liquid detergent base by magnetic stirring at room temperature for 24 h. • 2) Wash test: a 40° C. machine wash cycle was performed using 55 g of the liquid detergent sample containing the test material and odour-neutral cotton/elastane mixed fabric T-shirts. The wet fabric is line-dried and odour intensity and quality are assessed by a panel of 4-6 experts after 1 and 3 days on an intensity scale of 0 (odourless) to 5 (extremely strong).

[3] = Application in shampoo: odour intensity and quality on dry hair swatches, assessed by expert panel; conditions: 0.2% wt/wt in shampoo
Protocol: • 1) Sample preparation: 0.2% wt/wt of (E)-N-isopropyl-2-methylundecan-1-imine oxide (compound of example 9) was incorporated in unperfumed shampoo base by magnetic stirring at room temperature for 24 h. • 2) Wash test: Hair swatches were wetted with warm tap water, then 2 mL of the above prepared shampoo sample was applied to the hair swatches lathering with gloves delicately for 30 seconds. The hair swatches were rinsed with cold tap water for 20 seconds and excess water was removed by squeezing the hair swatches between two fingers. The hair swatches were left to dry in open air. Their odour intensity and quality was assessed by a panel of 4-6 experts after 1 and 2 days on an intensity scale of 0 (odourless) to 5 (extremely strong). • 3) Results: After 1 day, the fragrance score was 3.2, after 2 days, the fragrance score was 3.3.

[4] = Stability test in liquid detergent base by quantitative HPLC with UV detection; format: physicochemical
Protocol: Example 61: Stability test in liquid detergentThe stability of (E)-N-isopropyl-2-methylundecan-1-imine oxide (compound of Example 9) in a liquid detergent base was assessed by quantitative HPLC with UV detection.
A liquid detergent sample as prepared above containing the test substance was sampled at TO and after 30 days storage at 37° C. (300 mg diluted with 10 mL acetonitrile/high purity water 1:1), and the concentration of the precursor was assessed by quantitative HPLC-UV using an external calibration curve.

[5] = 0.2% wt/wt in liquid detergent, 40° C. machine wash

Row | Compound | Biodegradation in % [1] [%] | Fragrance score after 1 day [2, 5] | Fragrance score after 3 days [2, 5] | also measured
1 | CCCCCCCCCC(C)/C=[N+](\C)[O-] (stereo not shown) [Example 13, (E)-N,2-dimethylundecan-1-imine oxide] | 89 |  |  | 
2 | CCCCCCCCCC(C)/C=[N+](/[O-])Cc1ccc(OC)cc1 (stereo not shown) [Example 58, (E)-N-(4-methoxybenzyl)-2-methylundecan-1-imine oxide] | 76 |  |  | 
3 | CCCCCCCCCC(C)C=O (stereo not shown) [Sample B, 2-methyl undecanal, reference compound] |  |  |  | Odour intensity on dried fabric over time (FIG. 1) [2]: relatively high on the freshly dried sample and decreases with time
4 | CC1=C(/C=C/C(C)=[N+](/[O-])C(C)C)C(C)(C)CCC1 [Example 10, (2E,3E)-N-isopropyl-4-(2,6,6-trimethylcyclohex-1-en-1-yl)but-3-en-2-imine oxide] |  | 2.3 | 2.2 | Odour on dry fabric ([2]; 0.2% wt/wt in liquid detergent, 40° C. machine wash, line-dried fabric, odour quality by panel): ionone
5 | CCCCCCCCCC(C)/C=[N+](/[O-])C(C)C (stereo not shown) [Example 9, (E)-N-isopropyl-2-methylundecan-1-imine oxide] | 70 | 2.4 | 3.2 | Perceived odour on dry hair [3]: clean, aldehydic; Fragrance score after 1 day ([3]; panel of 4-6 experts, scale 0 (odourless) to 5 (extremely strong), after 1 day): 3.2; Fragrance score after 2 days ([3]; panel of 4-6 experts, scale 0 (odourless) to 5 (extremely strong), after 2 days): 3.3; Stability in liquid detergent (judgement) ([4]; 30 days storage at 37° C., alkaline liquid detergent): stable; Concentration of the precursor in liquid detergent, initial ([4]; liquid detergent base, T0, HPLC-UV): 0.21 weight %; Concentration of the precursor in liquid detergent after storage ([4]; liquid detergent base, after 30 days storage at 37° C., HPLC-UV): 0.18 weight %
6 | CCCCCCCCCC(C)/C=[N+](/[O-])C1CCCCC1 (stereo not shown) [Example 6, (E)-N-cyclohexyl-2-methylundecan-1-imine oxide] | 74 |  |  | 
7 | CCCCCCCCC/C=C/C=[N+](\[O-])Cc1ccccc1 [Example 49, (1Z,2E)-N-benzyldodec-2-en-1-imine oxide] |  | 2.9 | 3.0 | 
8 | CCCCCCCCCC(C)/C=[N+](/[O-])Cc1ccccc1 (stereo not shown) [Example 5, (E)-N-benzyl-2-methylundecan-1-imine oxide] | 87 |  |  | 
9 | CCCCCCCCCC(C)/C=[N+](/[O-])Cc1ccc(C)cc1 (stereo not shown) [Example 1, (E)-2-methyl-N-(4-methylbenzyl)undecan-1-imine oxide] | 83 |  |  | Odour intensity on dried fabric over time (FIG. 1) [2]: increases with time and is the highest after four days
10 | CCCCCCCCCC(C)/C=[N+](/[O-])CC(C)CCC (stereo not shown) [Example 15, (E)-2-methyl-N-(2-methylpentyl)undecan-1-imine oxide] | 75 |  |  | 
